Test results taken from US10201530B2, “Treatment of BRCA1-defective cancer or resistant cancers” (City of Hope, priority 2014, dated 2019).
Read-outs that look alike come from different tables or passages of the source.

Key:
OV90 = assay: Cytotoxicity (MTT/DIMSCAN), OV90 cells; type: cell-based, human; conditions: read-out: IC50, mean ± SEM
Procedure: (§1) All cell lines were acquired from the American Type Culture Collection (Manassas, Va., USA). Cells were maintained in RPMI 1640 medium (Mediatech) with 10% fetal bovine serum, 2 mM glutamine, and 100 U of penicillin and 100 μg of streptomycin per ml of medium (Sigma) at 37° C. in 5% CO2. To isolate HCC1437+BRCA1 cells, parental HCC1937 cells were transfected with pcDNA3.1 plasmid expressing full-length BRCA1 cDNA. Stable transfectant clones were selected and used for drug sensitivity assays. For stable transfection, cells at 30-40% confluence were incubated overnight with […] of plasmid DNA, using FUGENE® 6 transfectin reagent (Roche Molecular Biochemical, Monza, Italy) according to the manufacturer's instructions. Cells were then selected in puromycin (1 μg/ml) (Invitrogen life Technologies, La Jolla, Calif., USA.) After 20 to 30 days, viable puromycin-resistant colonies from HCC1937 transfections were expanded and screened. The clones that stably expressed […] and retained growth potential were assayed for BRCA1 expression by Western blot analysis. By Western blot analysis, we evaluated the restoration of BRCA1 expression in the puromycin-resistant cDNA/transfectant cells.
(§2) The MTT cytotoxicity assay was performed by incubating with MTT and monitoring the MTT formazan formed by viable cells with a microplate reader at a wavelength of 560 nm; the survival, ratio was determined using the formula: (Atest−Ablank)/(Acontrol−Ablank)×100%. The cytotoxicity was determined in 96-well plates using the semiautomatic fluorescence-based Digital Imaging Microscopy System (DIMSCAN). DIMSCAN uses digital imaging microscopy to quantify viable cells, which selectively accumulate FDA (fluorescein diacetate; Alfa Aesar, Ward Hill, Mass.). DIMSCAN is capable of measuring cytotoxicity over a 4 log dynamic range by quantifying total fluorescence per well (which is proportional to the number of viable cells) after elimination of the background fluorescence by digital thresholding and eosin Y (Mallinckrodt Baker, Center Valley, Pa.) quenching. Cells were seeded into 96-well plates in 100 μL of complete medium at 2,000 to 5,000 cells per well depending on cell line growth rate. After overnight incubation, test compound was added to each well at various concentrations in 50 μL of culture medium. […] Total fluorescence per well was then measured using DIMSCAN, and the results were expressed as the ratio of the fluorescence in treated wells to the fluorescence in untreated wells (survival fraction).

TOV112D = assay: Cytotoxicity, TOV112D cells; type: cell-based, human; conditions: read-out: IC50, mean ± SEM
Procedure: as §1
(§3) The MTT cytotoxicity assay was performed by incubating with MTT and monitoring the MTT formazan formed by viable cells with a microplate reader at a wavelength of 560 nm; the survival, ratio was determined using the formula: (Atest−Ablank)/(Acontrol−Ablank)×100%. The cytotoxicity was determined in 96-well plates using the semiautomatic fluorescence-based Digital Imaging Microscopy System (DIMSCAN). DIMSCAN uses digital imaging microscopy to quantify viable cells, which selectively accumulate FDA (fluorescein diacetate; Alfa Aesar, Ward Hill, Mass.). DIMSCAN is capable of measuring cytotoxicity over a 4 log dynamic range by quantifying total fluorescence per well (which is proportional to the number of viable cells) after elimination of the background fluorescence by digital thresholding and eosin Y (Mallinckrodt Baker, Center Valley, Pa.) quenching. Cells were seeded into 96-well plates in 100 μL of complete medium at 2,000 to 5,000 cells per well depending on cell line growth rate. After overnight incubation, test compound was added to each well at various concentrations in 50 μL of culture medium. After incubation with the drugs for 96 hours at 37° C., FDA (final concentration: […]) and eosin Y [final concentration: 0.1% (w/v)] were added to each well and the cells were incubated for an additional 20 minutes at 37° C. Total fluorescence per well was then measured using DIMSCAN, and the results were expressed as the ratio of the fluorescence in treated wells to the fluorescence in untreated wells (survival fraction).

OVCAR-3 = assay: Cytotoxicity, OVCAR-3 cells; type: cell-based, human; conditions: read-out: IC50, mean ± SEM
Procedure: as §1, §3

OVCAR-4 = assay: Cytotoxicity, OVCAR-4 cells; type: cell-based, human; conditions: read-out: IC50, mean ± SEM
Procedure: as §1, §3

UWB1.289 = assay: Cytotoxicity, UWB1.289 cells; type: cell-based, human; conditions: read-out: IC50, mean ± SEM
Procedure: as §1, §2

UWB1.289 + BRCA1 = assay: Cytotoxicity, UWB1.289+BRCA1 cells; type: cell-based, human; conditions: read-out: IC50, mean ± SEM
Procedure: as §1, §2

KB-Gem = assay: Cytotoxicity, KB-Gem cells; type: cell-based, human; conditions: gemcitabine-resistant, read-out: IC50, mean ± SEM
Procedure: as §1, §3

KB-7D = assay: Cytotoxicity, KB-7D cells; type: cell-based, human; conditions: cisplatin-resistant, read-out: IC50, mean ± SEM
Procedure: as §1, §3

A2780 = assay: Cytotoxicity, A2780 cells; type: cell-based, human; conditions: A2780, cisplatin-sensitive ovarian cells, read-out: IC50, mean ± SEM
Procedure: as §1, §3

A2780-DDDP = assay: Cytotoxicity, A2780-DDDP cells; type: cell-based, human; conditions: cisplatin-resistant ovarian cells, read-out: IC50, mean ± SEM
Procedure: as §1, §3

MDA-MB-231 = assay: Cytotoxicity, MDA-MB-231 cells; type: cell-based, human
Procedure: as §1, §3

HCC1937 = assay: Cytotoxicity, HCC1937 cells; type: cell-based, human
Procedure: as §1
(§4) The MTT cytotoxicity assay was performed by incubating with MTT and monitoring the MTT formazan formed by viable cells with a microplate reader at a wavelength of 560 nm; the survival, ratio was determined using the formula: (Atest−Ablank)/(Acontrol−Ablank)×100%. The cytotoxicity was determined in 96-well plates using the semiautomatic fluorescence-based Digital Imaging Microscopy System (DIMSCAN). DIMSCAN uses digital imaging microscopy to quantify viable cells, which selectively accumulate FDA (fluorescein diacetate; Alfa Aesar, Ward Hill, Mass.). DIMSCAN is capable of measuring cytotoxicity over a 4 log dynamic range by quantifying total fluorescence per well (which is proportional to the number of viable cells) after elimination of the background fluorescence by digital thresholding and eosin Y (Mallinckrodt Baker, Center Valley, Pa.) quenching. […]

HCC1937 + BRCA1 = assay: Cytotoxicity, HCC1937+BRCA1 cells; type: cell-based, human
Procedure: as §1, §4

MCF-7 = assay: Cytotoxicity, MCF-7 cells; type: cell-based, human
Procedure: as §1, §4

SKBR3 = assay: Cytotoxicity, SKBR3 cells; type: cell-based, human
Procedure: as §1, §4

PARP1 protein = PARP1 protein level by Western blot; type: cell-based, human; conditions: HCC1937 cells irrespective of BRCA1 status, 4 h treatment
Procedure: For subcellular fractionation, cells were trypsinized and washed with cold PBS solution twice. […] Following centrifugation at 1,000 g for 5 min, the supernatant was collected (i.e., cytoplasmic fraction) and pellets were washed with the same buffer twice. The washed samples were extracted for 40 min on ice with fractionation buffer containing 0.5% NP-40 for nuclear fraction. All the samples were sonicated and clarified by centrifugation at 16,000 g for 15 min. Protein concentrations of all fractions were determined with Bio-Rad Protein Assay (Bio-Rad Laboratories, Hercules, Calif.). Immunoblotting was performed as described previously (21,22). Briefly, equal amounts of boiled protein samples were subjected to SDS-polyacrylamide gel electrophoresis (PAGE) and transferred onto nitrocellulose membranes (Bio-Rad Laboratories). Membranes were blocked for 1 hour in 3% BSA in Tris buffered saline containing 0.05% Tween 20 (TBST) and incubated for 1 hour with primary antibody (1:500 or 1:1000) diluted in TBST containing 1% BSA. After two washes with TBST, membranes were incubated for 1 hour with horseradish peroxidase-conjugated secondary Abs (1:3000 dilution) at room temperature. The immunoblots were visualized on film with the West-Q chemi-luminescence kit (GenDEPOT, Barker, Tex.).

zebrafish embryos = assay: Zebrafish genotoxicity assay; type: in vivo, Danio rerio; conditions: wild-type zebrafish embryos, HU 0-50 mM
Procedure: Zebrafish (Danio rerio) were obtained from zebrafish Core facility of Taipei Medical University and maintained at 28° C. on a 14 h light/10 h dark cycle. Embryos were incubated at 28° C. and different developmental stages were determined as described (25). Wild-type embryos were treated with different concentrations of HU (0, 5, […], 20, 50 mM) or COH29 (0, 10, 20, 50, 100 μM) at 20 hpf to evaluate the mutagenic effect. Fifteen embryos were treated per well condition. […] Embryos were observed using an Olympus IX70-FLA inverted fluorescence microscope. Images were taken using SPOT digital camera system (Diagnostic Instruments, Sterling Heights, Mich., USA) and assembled with ImageJ software (26).

[1] = Homo sapiens, UWB1289, UWB1.289
[2] = Homo sapiens, UWB1289, UWB1.289 + BRCA1
[3] = Homo sapiens, MDA-MB-231, TNBC, read-out: IC50, mean ± SEM

CC(=O)O[C@H]1C(=O)[C@@]2(C)[C@H]([C@H](OC(=O)c3ccccc3)[C@]3(O)C[C@H](OC(=O)[C@H](O)[C@@H](NC(=O)c4ccccc4)c4ccccc4)C(C)=C1C3(C)C)[C@]1(OC(C)=O)CO[C@@H]1C[C@@H]2O [Paclitaxel]
IC50 (OV90; Homo sapiens, OV-90, OV90): 9.09 ± 0.41 nM
IC50 (TOV112D; Homo sapiens): 6.45 ± 1.05 nM
IC50 (OVCAR-3; Homo sapiens): 2.89 ± 0.07 nM
IC50 (OVCAR-4; Homo sapiens): 5.55 ± 0.05 nM
IC50 (UWB1.289; [1]): 13.9 ± 0.7 nM
IC50 (UWB1.289 + BRCA1; [2]): 13 ± 1.62 nM
IC50 (KB-Gem; Homo sapiens): 1.95 ± 0.15 nM
IC50 (KB-7D; Homo sapiens, KB7D): 5.17 ± 0.17 nM
IC50 (A2780; Homo sapiens): 3.6 ± 1.67 nM
IC50 (A2780-DDDP; Homo sapiens): 11.4 ± 1.49 nM
IC50 (MDA-MB-231; [3]): 2.01 ± 0.57 nM
IC50 (MDA-MB-231; Homo sapiens, MDA-MB-231, Table 3 paclitaxel column, read-out: IC50): 2.01 ± 0.57 nM
IC50 (HCC1937; Homo sapiens, HCC1937, Table 3 paclitaxel column): 4.04 ± 0.44 nM
IC50 (HCC1937 + BRCA1; Homo sapiens, HCC1937 + BRCA1, Table 3 paclitaxel column): 5.4 ± 0.07 nM
IC50 (MCF-7; Homo sapiens, MCF7, MCF-7, Table 3 paclitaxel column): 6.36 ± 1.11 nM
IC50 (SKBR3; Homo sapiens, SK-BR-3, SKBR3, Table 3 paclitaxel column): 3.37 ± 0.08 nM

N.N.[Cl][Pt][Cl] [Cisplatin]
IC50 (OV90; OV90, wild-type BRCA1 ovarian cancer cells, COH29 72 h): 1570 ± 290 nM
IC50 (TOV112D): 1320 ± 200 nM
IC50 (OVCAR-3): 1640 ± 40 nM
IC50 (OVCAR-4): 2250 ± 250 nM
IC50 (UWB1.289; UWB1.289, BRCA1-defective ovarian cancer cells, COH29 72 h): 1430 ± 870 nM
IC50 (UWB1.289 + BRCA1; UWB1.289 + BRCA1 (WT), COH29 72 h): 7400 ± 2020 nM
IC50 (KB-Gem): 380 ± 30 nM
IC50 (KB-7D): 7500 ± 300 nM
IC50 (A2780): 690 nM
IC50 (A2780-DDDP): 5020 ± 1180 nM
IC50 (MDA-MB-231; MDA-MB-231, TNBC, read-out: IC50, mean ± SEM): 3740 ± 210 nM
IC50 (HCC1937; HCC1937, triple negative, BRCA1 mutant, COH29 72 h): 2460 ± 110 nM
IC50 (HCC1937 + BRCA1; HCC1937 + BRCA1, triple negative, COH29 72 h): 2930 ± 550 nM
IC50 (MCF-7; MCF-7, ER+ PR(+)): 12100 ± 1020 nM
IC50 (SKBR3; SKBR3, ER− PR(−) HER2+): 990 ± 240 nM

C[C@]1(c2nc3c(C(N)=O)cccc3[nH]2)CCCN1 [ABT-888]
effect on PARP1 protein level (PARP1 protein): significant reduction of PARP1

NC(=O)NO [HU, hydroxyurea]
developmental defects (zebrafish embryos; COH29 0-100 μM): caused defects in eyes and heart by 4 dpf
number of mutant embryos (zebrafish embryos): dose-dependent increase in the number of mutant embryos

Nc1ccn([C@@H]2O[C@H](CO)[C@@H](O)C2(F)F)c(=O)n1 [Gemcitabine]
IC50 (OV90; Homo sapiens, OV-90, OV90): 78.3 ± 11.6 nM
IC50 (TOV112D; Homo sapiens): 28.4 ± 4.18 nM
IC50 (OVCAR-3; Homo sapiens): 118 nM
IC50 (OVCAR-4; Homo sapiens): 55.1 ± 3.55 nM
IC50 (UWB1.289; [1]): 56.48 ± 0.32 nM
IC50 (UWB1.289 + BRCA1; [2]): 42.2 ± 0.62 nM
IC50 (KB-Gem; Homo sapiens): 60 ± 10 nM
IC50 (KB-7D; Homo sapiens, KB7D): 0.69 ± 0.02 nM
IC50 (A2780; Homo sapiens): 25.5 ± 1.66 nM
IC50 (A2780-DDDP; Homo sapiens): 36.3 ± 0.79 nM
IC50 (MDA-MB-231; [3]): 17 ± 1.33 nM
